# Experimental data reported in patent US8609043B2, “Use of a container of an inorganic additive containing plastic material” (M & P Patent Aktiengesellschaft, priority 2001, dated 2013).
# Test: Stability of formulations containing testosterone in containers of different material (HPLC)
# Format: physicochemical
# Description: As an example for the aforementioned considerations in table 1 are shown the results of tests investigating the stability of formulations containing the steroid hormone testosterone in containers of different material.
# The term “remaining drug after storage” is the amount of testosterone remaining in the formulation after storage for 22 hours. The remaining drug was measured by HPLC technique.
compound,measurement,setting,value
C[C@]12CC[C@H]3[C@@H](CCC4=CC(=O)CC[C@@]43C)[C@@H]1CC[C@@H]2O [testosterone],Remaining drug after storage (%),"Methanolic formulation, primary packaging material Glass, storage for 22 hours",100%
same,Remaining drug after storage (%),"Oil-based formulation, primary packaging material Glass, storage for 22 hours",≈80%
same,Remaining drug after storage (%),"Oil-based formulation, primary packaging material LDPE + TiO2, storage for 22 hours",100%
same,Remaining drug after storage (%),"Oil-based formulation, primary packaging material LDPE, storage for 22 hours",≈30%
same,Remaining drug after storage (%),"Oil-based formulation, primary packaging material PP, storage for 22 hours",≈50%
